In ChEMBL document CHEMBL4028815, “Novel phosphonate analogs of sulforaphane: Synthesis, in vitro and in vivo anticancer activity” (Eur J Med Chem, 2017):
Active and inactive are the calls of the source. The rule behind the calls is not given here.

Tests used:
LoVo [1] = assay: Cytotoxicity against human LoVo cells after 72 hrs by sulforhodamine B assay; format: functional, cell-based
[2] = Cytotoxicity against human LoVo/DX cells after 72 hrs by sulforhodamine B assay; format: functional, cell-based
[3] = Induction of apoptosis in human LoVo/DX cells assessed as increase in caspase3/7 activity at 15 uM using Ac-DEVD-ACC as substrate pretreated for 24 hrs followed by substrate addition measured for 2 hrs by fluorescence assay relative to control; format: functional
LoVo [4] = assay: Induction of apoptosis in human LoVo cells assessed as increase in caspase3/7 activity at 15 uM using Ac-DEVD-ACC as substrate pretreated for 24 hrs followed by substrate addition measured for 2 hrs by fluorescence assay relative to control; format: functional
LoVo [5] = assay: Induction of apoptosis in human LoVo cells assessed as loss of mitochondrial membrane potential at 15 uM after 24 hrs by JC-1 staining based flow cytometric method relative to control; format: functional
[6] = Induction of apoptosis in human LoVo/DX cells assessed as loss of mitochondrial membrane potential at 15 uM after 24 hrs by JC-1 staining based flow cytometric method relative to control; format: functional
LoVo [7] = assay: Induction of apoptosis in human LoVo cells assessed as late apoptotic cells at 15 uM after 24 hrs by APC-Annexin-V/propidium iodide staining based flow cytometric method relative to control; format: functional
LoVo/DX = assay: Induction of apoptosis in human LoVo/DX cells assessed as late apoptotic cells at 15 uM after 24 hrs by APC-Annexin-V/propidium iodide staining based flow cytometric method relative to control; format: functional
LoVo [8] = assay: Induction of apoptosis in human LoVo cells assessed as increase in early apoptotic cells at 15 uM after 24 hrs by APC-Annexin-V/propidium iodide staining based flow cytometric method relative to control; format: functional
LoVo [9] = assay: Induction of apoptosis in human LoVo cells assessed as necrotic cells at 15 uM after 24 hrs by APC-Annexin-V/propidium iodide staining based flow cytometric method (reference value: 10%); format: functional
LoVo [10] = assay: Potency index, ratio of sulforaphane IC50 to compound IC50 for human LoVo cells; format: functional
LoVo [11] = assay: Potency index, ratio of benzyl isothiocyanate IC50 to compound IC50 for human LoVo cells; format: functional
[12] = Resistance index, ratio of IC50 for human MESSA/DX5 cells to IC50 for human MESSA cells; format: functional
MES-SA = assay: Cytotoxicity against human MESSA cells after 72 hrs by sulforhodamine B assay; format: functional, cell-based
MES-SA/Dx5 = assay: Cytotoxicity against human MESSA/DX5 cells after 72 hrs by sulforhodamine B assay; format: functional, cell-based; conditions: MES-SA/Dx5, 72 h

| Structure (SMILES) | IC50 (LoVo [1]) | IC50 [2] | further results |
| --- | --- | --- | --- |
| C[S+]([O-])CCCCN=C=S (stereo not given) [SULFORAPHANE] | 22.9 µM | 18.1 µM | fold change (FC) [3]: 2.52; fold change (FC) (LoVo [4]): 1.41; Activity (LoVo [5]): 35%; Activity [6]: 35%; Activity (LoVo [7]): Active; Activity (LoVo/DX): Active; Activity (LoVo [8]): inactive; Activity (LoVo [9]): Active |
| O=P(CCCCCN=C=S)(OCC(F)(F)F)OCC(F)(F)F | 5.4 µM | 10.5 µM | – |
| CC(C)(C)COP(=O)(CCCN=C=S)OCC(C)(C)C | 10.2 µM | 14 µM | – |
| O=P(CCN=C=S)(Oc1ccccc1)Oc1ccccc1 | 10.5 µM | 11.4 µM | – |
| COP(=O)(CCN=C=S)OC | 12.3 µM | 12.4 µM | – |
| C#CCOP(=O)(CCCCN=C=S)OCC#C | 3.2 µM | 11.3 µM | – |
| COP(=O)(CCCN=C=S)OC | 9.3 µM | 9.6 µM | – |
| O=P(CCCCN=C=S)(Oc1ccccc1)Oc1ccccc1 | 2.3 µM | 3.1 µM | Ratio IC50 (LoVo [10]): 10; Ratio IC50 (LoVo [11]): 5 |
| CC(C)(C)COP(=O)(CCCCCCN=C=S)OCC(C)(C)C | 7.4 µM | 11.2 µM | – |
| CC(C)OP(=O)(CCCN=C=S)OC(C)C | 2.6 µM | 3.3 µM | Ratio IC50 (LoVo [10]): 10; Ratio IC50 (LoVo [11]): 5 |
| CCC(C)OP(=O)(CCCCN=C=S)OC(C)CC (stereo not given) | 4.3 µM | 3.6 µM | – |
| O=P(CCN=C=S)(OCC(F)(F)F)OCC(F)(F)F | 5.5 µM | 8.2 µM | – |
| CCOP(=O)(CCCCCCCCCCN=C=S)OCC | 10 µM | 13.1 µM | – |
| CC(C)COP(=O)(CCCN=C=S)OCC(C)C | 2.4 µM | 5.6 µM | Ratio IC50 (LoVo [10]): 10; Ratio IC50 (LoVo [11]): 5 |
| COc1cccc2c1C(=O)c1c(O)c3c(c(O)c1C2=O)C[C@@](O)(C(=O)CO)C[C@@H]3O[C@H]1C[C@H](N)[C@H](O)[C@H](C)O1 [DOXORUBICIN] | 0.3 µM | 12.2 µM | Ratio IC50 [12]: 100; IC50 (MES-SA): 0.1 µM; IC50 (MES-SA/Dx5): 13.9 µM |
| CCOP(=O)(CCCCCN=C=S)OCC | 2.8 µM | 3.1 µM | Ratio IC50 (LoVo [10]): 10; Ratio IC50 (LoVo [11]): 5 |
| C=CCOP(=O)(CCCCN=C=S)OCC=C | 5.2 µM | 3.7 µM | – |
| COP(=O)(CCCCN=C=S)OC | 5.4 µM | 6.5 µM | – |
| COP(=O)(CCCCCCN=C=S)OC | 5.4 µM | 9.9 µM | – |
| O=P(CCCCCN=C=S)(OCc1ccccc1)OCc1ccccc1 | 3.5 µM | 8.5 µM | – |
| CCOP(=O)(CCCN=C=S)OCC | 2.9 µM | 3 µM | Ratio IC50 (LoVo [10]): 10; Ratio IC50 (LoVo [11]): 5 |
| O=P(CCCCN=C=S)(OCC1CCCO1)OCC1CCCO1 (stereo not given) | 5 µM | 7.6 µM | – |
